For experiment [1], the target named is T1, human FGFR3 V555L enzyme (cytoplasmic domain carrying V555L mutation) (Homo sapiens, UniProt P22607, V555L).
T1 construct: human FGFR3 V555L enzyme (cytoplasmic domain carrying V555L mutation, from Carna Biosciences); purchased Carna Biosciences
The experiment is described as follows: FGFR3 V555L mobility shift assay (enzymatic assay). The class given is biochemical. The settings on record: 40 μM ATP, 50 minutes at 30° C, Caliper EZ reader II. From the text:
FGFR3 V555L Mobility Shift Assay (Enzymatic Assay)

In experiment [2] the test system is NIH/3T3 cells transfected with control vector. Put plainly: NIH/3T3 mock cell proliferation assay (counter assay, CellTiter Glo). The class given is cell-based. The settings on record: 72-hr incubation, top concentration 30 μM, counter assay for general toxicity, read-out: NIH/3T3 MOCK CTG (IC50).
In experiment [3] the target is T2, NIH/3T3 cells overexpressing FGFR3 WT-TACC3 fusion protein (Homo sapiens, UniProt P22607).
T2 construct: NIH/3T3 FGFR3 WT-TACC3 CTG (IC50); other: 72-hr incubation, CellTiter Glo, top concentration 10 μM; fused on or other part: Q9Y6A5 (Transforming acidic coiled-coil-containing protein 3)
T2 sequence (P22607 whole entry, change not shown, the tested form may be a part): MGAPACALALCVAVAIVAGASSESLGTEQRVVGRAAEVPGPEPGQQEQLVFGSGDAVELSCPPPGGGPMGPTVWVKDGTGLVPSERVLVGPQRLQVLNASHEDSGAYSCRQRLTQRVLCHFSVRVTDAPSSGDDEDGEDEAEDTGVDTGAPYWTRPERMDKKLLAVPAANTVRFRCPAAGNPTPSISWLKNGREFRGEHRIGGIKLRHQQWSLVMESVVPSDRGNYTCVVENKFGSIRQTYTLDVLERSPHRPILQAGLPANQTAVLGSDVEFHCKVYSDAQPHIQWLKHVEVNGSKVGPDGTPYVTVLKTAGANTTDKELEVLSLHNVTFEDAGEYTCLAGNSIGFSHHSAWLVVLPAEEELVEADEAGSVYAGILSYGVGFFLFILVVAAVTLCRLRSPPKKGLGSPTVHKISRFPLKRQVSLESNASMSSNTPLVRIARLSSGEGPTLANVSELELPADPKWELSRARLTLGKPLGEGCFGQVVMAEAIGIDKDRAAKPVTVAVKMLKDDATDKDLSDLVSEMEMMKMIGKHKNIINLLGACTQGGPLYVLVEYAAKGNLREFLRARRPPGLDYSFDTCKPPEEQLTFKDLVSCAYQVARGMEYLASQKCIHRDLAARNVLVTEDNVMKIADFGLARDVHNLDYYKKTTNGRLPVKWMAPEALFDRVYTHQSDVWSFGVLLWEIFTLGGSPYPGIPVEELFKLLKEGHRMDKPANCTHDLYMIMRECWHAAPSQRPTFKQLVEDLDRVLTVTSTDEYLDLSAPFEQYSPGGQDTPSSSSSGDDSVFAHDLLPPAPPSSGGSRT
The experiment is described as follows: NIH/3T3 FGFR3 WT-TACC3 cell proliferation assay (CellTiter Glo). The class given is cell-based. The settings on record: 72-hr incubation, top concentration 10 μM, read-out: NIH/3T3 FGFR3 WT-TACC3 CTG (IC50). For orientation: ATP-based viability assays read luminescence as a measure of living cells.

Experiment [4] concerns the target T3, human FGFR3 wild type enzyme (cytoplasmic domain) (Homo sapiens, UniProt P22607).
T3 construct: human FGFR3 wild type enzyme (cytoplasmic domain, from Carna Biosciences); purchased Carna Biosciences
The experiment is described as follows: FGFR3 wild type mobility shift assay (enzymatic assay). The class given is biochemical. The note with it: 75 μM ATP, 50 minutes at 30° C, Caliper EZ reader II. From the text:
FGFR3 Wild Type Mobility Shift Assay (Enzymatic Assay)

The subject of experiment [5] is NIH/3T3 cells overexpressing FGFR3 WT-TACC3 fusion protein. Put plainly: NIH/3T3 FGFR3 WT-TACC3 cellular phospho-ERK assay (in vitro PD assay). The class given is cell-based. The settings on record: Mus musculus, NIH3T3; 1-hr incubation, AlphaLISA SureFire Ultra p-ERK1/2 (Thr202/Tyr204); read-out: NIH/3T3 FGFR3 WT-TACC3 pERK (IC50). For orientation: Alpha assays give light when donor and acceptor beads are brought close together.
Experimental: NIH/3T3 FGFR3 WT-TACC3 Cellular Phospho-ERK Assay (In Vitro PD Assay)
50 μL of cell suspension (NIH/3T3 cells overexpressing FGFR3 WT-TACC3 fusion protein) (total 10,000 cells per well in growth medium (DMEM containing 1% Glutamax, 10% FBS and 1% Pen/Strep)) was seeded in a 384-well plate. […] After 1-hr incubation at 37° C. and 5% CO2, the medium was depleted and AlphaLISA SureFire Ultra p-ERK1/2 (Thr202/Tyr204) Assay Kit (from PerkinElmer) was applied for phospho-ERK level detection according to the kit instructions.

Where two headings read alike, the source gives them in different places.

The values below come from patent US11691970B2, “Pyrazolopyridinone compounds” (Janssen Pharmaceutica NV, priority 2017, dated 2023).

T3 sequence (P22607 397-806 limits assumed): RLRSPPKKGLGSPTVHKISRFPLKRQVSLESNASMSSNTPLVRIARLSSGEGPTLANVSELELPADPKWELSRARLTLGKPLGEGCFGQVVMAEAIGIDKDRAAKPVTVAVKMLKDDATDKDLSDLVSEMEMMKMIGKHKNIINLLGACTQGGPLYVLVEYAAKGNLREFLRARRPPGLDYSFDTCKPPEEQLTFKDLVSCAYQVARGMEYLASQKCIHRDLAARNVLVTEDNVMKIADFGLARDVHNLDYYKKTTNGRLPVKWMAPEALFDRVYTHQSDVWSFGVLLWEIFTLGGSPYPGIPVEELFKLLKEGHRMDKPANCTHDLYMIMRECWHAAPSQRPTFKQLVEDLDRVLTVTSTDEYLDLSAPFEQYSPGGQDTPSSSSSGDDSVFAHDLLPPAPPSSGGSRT
T1 sequence (P22607 397-806 V555L limits assumed): as the sequence (P22607 397-806 limits assumed) above, with V159L counted along it

Turning to `CC(Nc1c(-c2nc3ccc(N4CCOCC4)cc3[nH]2)c(=O)[nH]c2cn(C)nc12)c1cscn1` (single isomer, unassigned) [Compound 41, (S*)-2-methyl-6-(6-morpholino-1H-benzo[d]imidazol-2-yl)-7-((1-(thiazol-4-yl)ethyl)-amino)-2H-pyrazolo[4,3-b]pyridin-5(4H)-one], the IC50 was determined as 50.8 nM in experiment [1]; 425 nM in experiment [2] (Mus musculus, NIH3T3, 72 h); 23.7 nM in experiment [4]. Besides, in experiment [3], the GI50 was 5.57 nM.
Consider `CC(Nc1c(-c2nc3ccc(N4CCOCC4)cc3[nH]2)c(=O)[nH]c2cn(C)nc12)c1cscn1` (single isomer, unassigned) [Compound 42, (R*)-2-methyl-6-(6-morpholino-1H-benzo[d]imidazol-2-yl)-7-((1-(thiazol-4-yl)ethyl)-amino)-2H-pyrazolo[4,3-b]pyridin-5(4H)-one], for which the values for the IC50 in experiment [5], in experiment [2] and in experiment [4] were 2.73 nM, 305 nM and 18.9 nM, respectively. Further, in experiment [3], the GI50 stood at 8.84 nM.
With `CCn1cc2[nH]c(=O)c(-c3nc4c(F)cc(N5CC(OC)C5)cc4[nH]3)c(N[C@@H](C)c3ncccn3)c2n1` [Compound 49, (S)-2-ethyl-6-(4-fluoro-6-(3-methoxyazetidin-1-yl)-1H-benzo[d]imidazol-2-yl)-7-((1-(pyrimidin-2-yl)ethyl)amino)-2H-pyrazolo[4,3-b]pyridin-5(4H)-one], the IC50 in experiment [2] (Mus musculus, NIH3T3, 72 h) was determined as 460 nM; in experiment [4] it was 2.51 nM. In addition, in experiment [3], the GI50 came to 28.1 nM.
On the same counts, the results for `COc1cc2nc(-c3c(N[C@@H](C)c4ncccn4)c4nn(C)cc4[nH]c3=O)[nH]c2cc1N1CCOCC1` [Compound 52, (S)-6-(5-methoxy-6-morpholino-1H-benzo[d]imidazol-2-yl)-2-methyl-7-((1-(pyrimidin-2-yl)ethyl)amino)-2H-pyrazolo[4,3-b]pyridin-5(4H)-one] are 390 nM, 0.704 nM and 4.11 nM.
